The values below come from US20230089073A1 (Carmot Therapeutics, Inc., priority 2021, published 2023).

For one experiment, the system named is cynomolgus monkeys. The experiment in a line: Intravenous Glucose Tolerance Test (IVGTT) in Cynomolgus Monkeys. In kind it is in vivo, cynomolgus monkeys (Macaca fascicularis). As to conditions: test article intravenous bolus 1-6 minutes prior to IV glucose 0.5 g/kg, plasma insulin 0-60 minutes, FIG. 1. How it is done:
Intravenous Glucose Tolerance Test (IVGTT) in Cynomolgus Monkeys
Aged ([…]) cynomolgus monkeys (Macaca fascicularis; N=4-5/test article) were fasted overnight and anesthetized with ketamine prior to the intravenous glucose tolerance test (IVGTT). The test articles were formulated at 6 mg/mL in vehicle (5% polyethylene glycol 400: 95% (12% (w/v) sulfobutylether-β-cyclodextrin in deionized water) (v/v)]) and administered by intravenous bolus into a peripheral vein 1-6 minutes prior to the IVGTT. The IVGTT was initiated by administration of an IV bolus of glucose (0.5 g/kg as a 50% glucose solution). Blood samples were collected from a peripheral vein 0, 1, 3, 5, 10, 20, 40 and 60 minutes upon completion of the IV bolus glucose injection. The blood samples were collected directly into potassium ethylene diamine tetra-acetic acid tubes and plasma separated by centrifugation at 2,500 g for 10 minutes within 30 minutes of collection. The plasma from all time points was analyzed for insulin concentrations ([…]) using a Cobas e411 Immunology analyzer. Insulin area-under-the-curve (AUC) was calculated using GraphPad Prism software (v 9).

The next experiment concerns the target T1, human GLP-1 receptor (Homo sapiens, UniProt P43220).
T1 construct: expressed in transfected cells
The experiment in a line: GLP-1R cAMP Assay. In kind it is cell-based. The conditions noted are these: cAMP accumulation in CHO cells stably overexpressing the human GLP-1 receptor; 30 min treatment; HitHunter cAMP kit; read-out: EC50. The procedure, abridged:
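Luminescent enzyme-complementation detection of cAMP, read after cell lysis and overnight incubation, with dose-response curve fitting. Stimulation lasted 30 min, using 20-point triplicate dosing on CHO cells (10,000 per well) stably overexpressing human GLP-1R.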
(Changes in cAMP serve as a functional read-out for many G protein-coupled receptors.)

T1 sequence (P43220 24-463): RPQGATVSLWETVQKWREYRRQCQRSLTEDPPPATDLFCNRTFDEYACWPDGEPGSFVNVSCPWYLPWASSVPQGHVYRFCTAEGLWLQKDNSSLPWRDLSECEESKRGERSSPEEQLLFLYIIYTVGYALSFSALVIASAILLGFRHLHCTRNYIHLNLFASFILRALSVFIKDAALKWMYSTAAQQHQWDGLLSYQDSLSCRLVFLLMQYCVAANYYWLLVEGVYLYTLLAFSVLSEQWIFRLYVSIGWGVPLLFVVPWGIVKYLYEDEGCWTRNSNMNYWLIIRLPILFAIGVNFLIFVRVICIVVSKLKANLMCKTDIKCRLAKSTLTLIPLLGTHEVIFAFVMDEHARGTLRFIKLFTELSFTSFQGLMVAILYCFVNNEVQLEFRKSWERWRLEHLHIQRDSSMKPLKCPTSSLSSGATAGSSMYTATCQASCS

The EC50 is the concentration giving half of the maximal effect. As to `CCn1cncc1Cn1c(CN2CCC(Oc3ccnc(COc4ccc(Cl)cc4Cl)c3)CC2)nc2ccc(C(=O)O)cc21` [Example 145, 2-((4-((2-((2,4-Dichlorophenoxy)methyl)pyridin-4-yl)oxy)piperidin-1-yl)methyl)-1-((1-ethyl-1H-imidazol-5-yl)methyl)-1H-benzo[d]imidazole-6-carboxylic acid], the “insulin AUC (insulin secretion)” value in the experiment with cynomolgus monkeys is given as “substantial increase”. In addition, at human GLP-1 receptor, the EC50 is below 50 nM.

`O=C(O)c1ccc2nc(CN3CCC(Oc4ccnc(COc5ccc(F)cc5Cl)n4)CC3)n(C[C@@H]3CCO3)c2c1` [Compound 326]: the “insulin AUC (insulin secretion)” value with cynomolgus monkeys is recorded as “substantial increase”. Moreover, at human GLP-1 receptor, the EC50 is below 50 nM.

For the compound `O=C(O)c1cc(F)c2nc(CN3CCC(Oc4ccnc(COc5ccc(Cl)cc5F)c4)CC3)n(C[C@@H]3CCO3)c2c1` [Compound 335], the “insulin AUC (insulin secretion)” value in the experiment with cynomolgus monkeys was “substantial increase”. Also, the EC50 on human GLP-1 receptor was below 50 nM.

Take `CCn1cncc1Cn1c(CN2CCC(Oc3ccnc(COc4ccc(Cl)cc4C#N)c3)CC2)nc2ccc(C(=O)O)cc21` [Compound 171, 2-{[4-({2-[(4-chloro-2-cyanophenoxy)methyl]pyridin-4-yl}oxy)piperidin-1-yl]methyl}-1-[(1-ethyl-1H-imidazol-5-yl)methyl]-1H-1,3-benzodiazole-6-carboxylic acid]: the “insulin AUC (insulin secretion)” value with cynomolgus monkeys was “substantial increase”. The EC50 on human GLP-1 receptor is below 50 nM.

As for `O=C(O)c1ccc2nc(CN3CCC(Oc4ccnc(COc5ccc(C(F)(F)F)cc5F)n4)CC3)n(C[C@@H]3CCO3)c2c1` [Compound 338], in the experiment with cynomolgus monkeys, the “insulin AUC (insulin secretion)” value is “substantial increase”. Moreover, the EC50 at human GLP-1 receptor was below 50 nM.

As for `C[C@H]1C[C@@H](Oc2ccnc(COc3ccc(F)cc3C#N)n2)CCN1Cc1nc2ccc(C(=O)O)cc2n1C[C@@H]1CCO1` [Example 355, 2-(((2S,4S)-4-((2-((2-cyano-4-fluorophenoxy)methyl)pyrimidin-4-yl)oxy)-2-methylpiperidin-1-yl)methyl)-1-(((S)-oxetan-2-yl)methyl)-1H-benzo[d]imidazole-6-carboxylic acid], the “insulin AUC (insulin secretion)” value with cynomolgus monkeys is given as “substantial increase”. Moreover, at human GLP-1 receptor, the concentration for a half-maximal effect (EC50) is below 50 nM.
